From patent publication US20230022157A1 (Achillion Pharmaceuticals, Inc., priority 2018, published 2023)
Structures can show the parent of a compound that is named as a salt. Where two headings read alike, the source gives them in different places.

Target: T1, Human Factor D (Homo sapiens, UniProt P00746)
T1 construct: purified from human serum; purchased Complement Technology, Inc; host or cells: human serum (natural protein, not recombinant)
Experiment: Human Factor D Assay
Format: biochemical
Details: Human Factor D 80 nM, substrate Z-L-Lys-SBzl, read-out: IC50 (Stars)
Summary of the method: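 Serum-purified human factor D (80 nM final) preincubated 5 min at room temperature with test compound in 50 mM Tris, 1M NaCl, pH 7.5. Z-L-Lys-SBzl substrate and DTNB then added, each at 100 μM final. IC50 from nonlinear regression of reaction rate against compound concentration.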

T1 sequence (P00746 26-253): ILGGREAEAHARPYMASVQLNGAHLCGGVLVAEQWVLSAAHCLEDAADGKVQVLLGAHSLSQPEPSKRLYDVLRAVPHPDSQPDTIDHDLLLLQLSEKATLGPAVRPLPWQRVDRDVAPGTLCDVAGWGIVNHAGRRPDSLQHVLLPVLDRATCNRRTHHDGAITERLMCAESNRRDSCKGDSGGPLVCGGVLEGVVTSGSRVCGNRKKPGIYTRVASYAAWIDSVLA

Structure (SMILES) | IC50 (Table 2) | IC50 (assay of Example 3)
CC(=O)c1nn(CC(=O)N2[C@H](C(=O)N[C@H](C)CC(C)C)C[C@@]3(C)C[C@@H]23)c2ccc(-c3cnc(C)nc3)cc12 [Compound 18, (1R,3S,5R)-2-(2-(3-Acetyl-5-(2-methylpyrimidin-5-yl)-1H-indazol-1-yl)acetyl)-5-methyl-N—((R)-4-methylpentan-2-yl)-2-azabicyclo[3.1.0]hexane-3-carboxamide] | – | < 1000 nM
CC(=O)c1nn(CC(=O)N2C[C@H]3C[C@H]3[C@H]2C(=O)Nc2nc(Br)ccc2Cl)c2c(C)cc(-c3cnc(C(C)O)nc3)cc12 (stereo partly shown) [Compound 166] | < 1000 nM | –
CC(=O)c1nn(CC(=O)N2[C@H](C(=O)Nc3nc(Br)ccc3C)C[C@@]3(C)C[C@@H]23)c2c(C)cc(-c3cnc([C@@H](C)O)nc3)cc12 (single isomer, unassigned) [Compound 142] | < 1000 nM | –
CC(=O)c1nn(CC(=O)N2[C@H](C(=O)NCCc3ccc(Cl)cc3Cl)C[C@@]3(C)C[C@@H]23)c2c(C)cc(-c3cnc(C)nc3)cc12 [Compound 5, (1R,3S,5R)-2-(2-(3-Acetyl-7-methyl-5-(2-methylpyrimidin-5-yl)-1H-indazol-1-yl)acetyl)-N-(2,4-dichlorophenethyl)-5-methyl-2-azabicyclo[3.1.0]hexane-3-carboxamide] | – | < 1000 nM
CC(=O)c1nn(CC(=O)N2[C@H](C(=O)N[C@@H](C)C(F)(F)F)C[C@@]3(C)C[C@@H]23)c2c(C)cc(-c3cnc(C)nc3)cc12 [Compound 153, (1R,3S,5R)-2-{2-[3-acetyl-7-methyl-5-(2-methylpyrimidin-5-yl)indazol-1-yl]acetyl}-5-methyl-N-[(2S)-1,1,1-trifluoropropan-2-yl]-2-azabicyclo[3.1.0]hexane-3-carboxamide] | < 1000 nM | –
CC(=O)c1nn(CC(=O)N2[C@H](C(=O)NC3CCCC4(C3)OCCO4)C[C@@]3(C)C[C@@H]23)c2c(C)cc(-c3cnc(C)nc3)cc12 (stereo partly drawn) [Compound 137, (1R,3S,5R)-2-{2-[3-acetyl-7-methyl-5-(2-methylpyrimidin-5-yl)indazol-1-yl]acetyl}-N-{1,4-dioxaspiro[4.5]decan-7-yl}-5-methyl-2-azabicyclo[3.1.0]hexane-3-carboxamide] | < 1000 nM | –
CC(=O)c1nn(CC(=O)N2[C@H](C(=O)Nc3nc(Br)ccc3C)C[C@@]3(C)C[C@@H]23)c2ccc(-c3cncc(S(C)(=O)=O)c3)cc12 [Compound 121, (1R,3S,5R)-2-(2-(3-Acetyl-5-(5-(methylsulfonyl)pyridin-3-yl)-1H-indazol-1-yl)acetyl)-N-(6-bromo-3-methylpyridin-2-yl)-5-methyl-2-azabicyclo[3.1.0]hexane-3-carboxamide] | < 1000 nM | –

The next lines start with results.

IC50 (Table 2) | Structure (SMILES) | IC50 (assay of Example 3)
< 1000 nM | CC(=O)c1nn(CC(=O)N2[C@H]3CC[C@H](C3)[C@H]2C(=O)Nc2nc(C(F)(F)F)ccc2C)c2c(C)cc(-c3cncc(C4(C(=O)O)CC4)c3)cc12 [Compound 128, 1-(5-(3-Acetyl-7-methyl-1-(2-((1S,3S,4R)-3-((3-methyl-6-(trifluoromethyl)pyridin-2-yl)carbamoyl)-2-azabicyclo[2.2.1]heptan-2-yl)-2-oxoethyl)-1H-indazol-5-yl)pyridin-3-yl)cyclopropane-1-carboxylic acid] | –
< 1000 nM | CC(=O)c1cn(CC(=O)N2[C@H](C(=O)Nc3nc(C(F)(F)F)ccc3C)C[C@@]3(C)C[C@@H]23)c2c(C)cc(-c3cnc(CO)nc3)cc12 [Compound 161, (1R,3S,5R)-2-(2-(3-acetyl-5-(2-(hydroxymethyl)pyrimidin-5-yl)-7-methyl-1H-indol-1-yl)acetyl)-5-methyl-N-(3-methyl-6-(trifluoromethyl)pyridin-2-yl)-2-azabicyclo[3.1.0]hexane-3-carboxamide] | –
< 1000 nM | Cc1ncc(-c2ccc3c(c2)c(C2OCCO2)nn3CC(=O)N2[C@H](C(=O)Nc3nc(Br)ccc3C)C[C@@]3(C)C[C@@H]23)cn1 [Compound 143, (1R,3S,5R)-2-(2-(3-(1,3-dioxolan-2-yl)-5-(2-methylpyrimidin-5-yl)-1H-indazol-1-yl)acetyl)-N-(6-bromo-3-methylpyridin-2-yl)-5-methyl-2-azabicyclo[3.1.0]hexane-3-carboxamide] | –
< 1000 nM | CC(=O)c1cn(CC(=O)N2[C@H](C(=O)Nc3nc(OC(F)(F)F)ccc3C)C[C@@]3(C)C[C@@H]23)c2c(C)cc(-c3cnc4cc(C)nn4c3)cc12 [Compound 206, (1R,3S,5R)-2-(2-(3-acetyl-7-methyl-5-(2-methylpyrazolo[1,5-a]pyrimidin-6-yl)-1H-indol-1-yl)acetyl)-5-methyl-N-(3-methyl-6-(trifluoromethoxy)pyridin-2-yl)-2-azabicyclo[3.1.0]hexane-3-carboxamide] | –
< 1000 nM | CCCC(C)(C)CNC(=O)[C@@H]1C[C@@]2(C)C[C@H]2N1C(=O)Cn1nc(C(C)=O)c2cc(-c3cnc(C)nc3)cc(C)c21 [Compound 116, (1R,3S,5R)-2-{2-[3-acetyl-7-methyl-5-(2-methylpyrimidin-5-yl)indazol-1-yl]acetyl}-N-(2,2-dimethylpentyl)-5-methyl-2-azabicyclo[3.1.0]hexane-3-carboxamide] | –
< 1000 nM | CC(=O)c1nn(CC(=O)N2C[C@@H](C(C)(C)N)C[C@H]2C(=O)Nc2nc(C(F)(F)F)ccc2C)c2c(C)cc(-c3cnc(C)nc3)cc12 [Compound 56, (2S,4S)-1-(2-(3-acetyl-7-methyl-5-(2-methylpyrimidin-5-yl)-1H-indazol-1-yl)acetyl)-4-(2-aminopropan-2-yl)-N-(3-methyl-6-(trifluoromethyl)pyridin-2-yl)pyrrolidine-2-carboxamide hydrochloride] | –
